BindingDB's records for doi:10.7270/Q23T9FMP (The Scripps Research Institute Molecular Screening Center, 2007)
Structures can show the parent of a compound that is named as a salt.

target: Steroidogenic factor 1 (Homo sapiens, UniProt Q13285); assay: SF-1 activators, concentration-response, dose response, cell-based, CHO-K1, Gal4-SF-1 LBD, luciferase luminescence (AID 692); details: not given
Sequence (Q13285 whole entry, the tested form may be a part): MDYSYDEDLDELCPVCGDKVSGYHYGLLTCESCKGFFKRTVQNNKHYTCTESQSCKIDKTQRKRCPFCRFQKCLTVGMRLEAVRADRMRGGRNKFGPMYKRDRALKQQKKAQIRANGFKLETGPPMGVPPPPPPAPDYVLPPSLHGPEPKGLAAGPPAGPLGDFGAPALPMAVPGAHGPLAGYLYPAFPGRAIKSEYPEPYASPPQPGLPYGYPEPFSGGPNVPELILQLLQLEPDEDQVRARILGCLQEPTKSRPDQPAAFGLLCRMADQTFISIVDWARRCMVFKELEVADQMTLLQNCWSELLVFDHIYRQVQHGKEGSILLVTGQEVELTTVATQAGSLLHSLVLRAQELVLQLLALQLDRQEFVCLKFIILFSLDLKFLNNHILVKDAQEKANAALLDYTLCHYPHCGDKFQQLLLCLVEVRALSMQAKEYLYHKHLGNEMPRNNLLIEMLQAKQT

Row | SMILES | EC50 [µM]
1 | O=C(Nc1ccc2c(c1)OCO2)c1ccc(COc2ccc3c(c2)CCC3)o1 [MLS000048173] | > 0.407
2 | O=C(Nc1cccc(-c2nnc(-c3ccccc3)o2)c1)c1ccc(Br)o1 [5-bromanyl-N-[3-(5-phenyl-1,3,4-oxadiazol-2-yl)phenyl]furan-2-carboxamide] | 4.1
3 | CC(=O)c1cccc(NC(=O)c2cnn3ccccc23)c1 [MLS000118777] | 2.2
4 | CCc1nnc(NC(=O)CSc2nc3c(cc2C#N)CCC3)s1 [2-[(3-cyano-1-pyrindan-2-yl)thio]-N-(5-ethyl-1,3,4-thiadiazol-2-yl)acetamide] | 1.21
5 | COc1cccc2c(O)c(C(=O)NCc3cccs3)cnc12 [4-Hydroxy-8-methoxy-quinoline-3-carboxylic acid (thiophen-2-ylmethyl)-amide] | 6.65
6 | COc1ccc2c(c1)CCc1c(C(=O)N3CCCCCC3)noc1-2 [1-azepanyl-(7-methoxy-4,5-dihydrobenzo[g][1,2]benzoxazol-3-yl)methanone] | 1.32
7 | COc1ccc(-c2cn3ccsc3n2)cc1 [6-(4-methoxyphenyl)imidazo[2,1-b][1,3]thiazole] | 0.38
8 | c1ccc(-c2cnc(CSc3nnc4ccccn34)o2)cc1 [5-phenyl-2-([1,2,4]triazolo[4,3-a]pyridin-3-ylsulfanylmethyl)-1,3-oxazole] | 0.957
9 | COC(=O)CSc1nc2cc(C)ccc2cc1C#N [(3-Cyano-7-methyl-quinolin-2-ylsulfanyl)-acetic acid methyl ester] | 0.746
10 | CCOC(=O)CSc1nc2ccccc2c(=O)n1NC(=O)c1ccccc1 [2-[(3-benzamido-4-keto-quinazolin-2-yl)thio]acetic acid ethyl ester] | 1.36
11 | CCOC(=O)c1cnc2c(-c3ccccc3)cnn2c1N [7-amino-3-phenyl-6-pyrazolo[1,5-a]pyrimidinecarboxylic acid ethyl ester] | 0.183
12 | CCc1nc(Nc2ccc3nccnc3c2)c2oc3ccccc3c2n1 [(2-ethylbenzofuro[3,2-d]pyrimidin-4-yl)-quinoxalin-6-yl-amine;hydrochloride] | > 99
13 | O=C1CCCC(=O)C1=CNc1ccc(O)cc1 [2-[(4-hydroxyanilino)methylidene]cyclohexane-1,3-dione] | 3.76
14 | CCc1nnc(NC(=O)CSc2nc(C)c3c(c2C#N)CCCC3)s1 [2-[(4-cyano-1-methyl-5,6,7,8-tetrahydroisoquinolin-3-yl)sulfanyl]-N-(5-ethyl-1,3,4-thiadiazol-2-yl)acetamide] | 1.69
15 | CC(=Nc1cccc(O)c1)c1sc2ccccc2c1O [(2Z)-2-[1-(3-hydroxyanilino)ethylidene]-1-benzothiophen-3-one] | 4.47
16 | CCOC(=O)CSc1nc(-c2ccc3c(c2)OCO3)ccc1C#N [2-[[6-(1,3-benzodioxol-5-yl)-3-cyano-2-pyridinyl]thio]acetic acid ethyl ester] | > 3.67
17 | COc1ccc2nc(Nc3nc(C)c(C(C)=O)s3)sc2c1 [1-[2-[(6-methoxy-1,3-benzothiazol-2-yl)amino]-4-methyl-1,3-thiazol-5-yl]ethanone] | 0.572
18 | Cc1cc(C(=O)OCC(=O)N2CCc3ccccc32)c(C)o1 [2,5-dimethyl-3-furancarboxylic acid [2-(2,3-dihydroindol-1-yl)-2-oxoethyl] ester] | 1.24
19 | O=C(Nc1ccc(NC(=O)c2cccs2)cn1)c1ccco1 [Furan-2-carboxylic acid {5-[(thiophene-2-carbonyl)-amino]-pyridin-2-yl}-amide] | 5.54
20 | COc1cc(C2c3c(c(O)n(-c4ccccc4)c3O)ON2c2ccccc2)ccc1O (configuration not stated) [3-(3-methoxy-4-oxidanyl-phenyl)-2,5-diphenyl-3a,6a-dihydro-3H-pyrrolo[3,4-d][1,2]oxazole-4,6-dione] | 31.9

Row | SMILES | EC50 [µM]
21 | Cc1ccc(C(=O)Nc2ncc(Cc3ccc(F)cc3)s2)o1 [5-Methyl-furan-2-carboxylic acid [5-(4-fluoro-benzyl)-thiazol-2-yl]-amide] | 0.414
22 | Cc1cccnc1Nc1nc(-c2ccc(O)cc2O)cs1 [4-[2-(3-Methyl-pyridin-2-ylamino)-thiazol-4-yl]-benzene-1,3-diol] | 2.27
23 | N#CCc1ccc(NC(=O)Nc2cccc(Cl)c2)cc1 [1-(3-chlorophenyl)-3-[4-(cyanomethyl)phenyl]urea] | 2.43
24 | CN(C)C(=O)CSc1nnc(C23CC4CC(CC(C4)C2)C3)o1 [SMR000077996] | 6.66
25 | CCOc1ccc(OCC)c(NC(=O)CSc2nc3c(c(=O)n(C)c(=O)n3C)n2C(C)C)c1 [MLS000072726] | > 11
26 | CCOC(=O)C1CCN(S(=O)(=O)c2ccc(-c3nc4ccccc4s3)s2)CC1 [1-[[5-(1,3-benzothiazol-2-yl)-2-thienyl]sulfonyl]isonipecotic acid ethyl ester] | 2.17
27 | CN(C)c1oc(-c2ccc(OCc3ccccc3)cc2)nc1C#N [2-(4-benzoxyphenyl)-5-(dimethylamino)oxazole-4-carbonitrile] | 5.21
28 | O=C(NCC1CCCO1)c1coc2nc3ccccc3nc12 (configuration not stated) [MLS000046703] | > 99
29 | CC(C)(C)c1cc(NC(=O)C2CCCO2)no1 (configuration not stated) [MLS000065845] | 2.82
30 | CN(C)c1ccc(NC(=O)Nc2cccc(Cl)c2)cc1 [1-(3-chlorophenyl)-3-[4-(dimethylamino)phenyl]urea] | 0.386
31 | Cc1ccc(-n2c(C)cc(C(=O)COC(=O)c3c(C)noc3C)c2C)cc1 [3,5-dimethyl-4-isoxazolecarboxylic acid [2-[2,5-dimethyl-1-(4-methylphenyl)-3-pyrrolyl]-2-oxoethyl] ester] | 1.8
32 | COc1ccc(-c2nc3c(Br)c(N)c(Br)cc3o2)cc1 [4,6-bis(bromanyl)-2-(4-methoxyphenyl)-1,3-benzoxazol-5-amine] | 0.825
33 | CCOc1ccc(N2C(=O)c3ccccc3C2O)cc1 (configuration not stated) [2-(4-ethoxyphenyl)-3-hydroxy-3H-isoindol-1-one] | 1.25
34 | OCCOCCNc1ncnc2c1cnn2-c1ccc(Cl)cc1 [2-[2-[[1-(4-chlorophenyl)-4-pyrazolo[3,4-d]pyrimidinyl]amino]ethoxy]ethanol] | 0.434
35 | CCCCC1CCC(c2nc(-c3ccccn3)no2)CC1 (configuration not stated) [SMR000105468] | 0.543
36 | CCOC(=O)N1CCN(S(=O)(=O)c2ccc(C(=O)Nc3sc4c(c3C#N)CCC4)cc2)CC1 [4-[4-[(3-cyano-5,6-dihydro-4H-cyclopenta[b]thiophen-2-yl)carbamoyl]phenyl]sulfonylpiperazine-1-carboxylic acid ethyl ester] | > 1.22
37 | CC(=O)c1c(C)[nH]c(C(=O)NCCc2cccc(C)c2)c1C [MLS000045238] | > 3.67
38 | CC(=O)Nc1ccc(-c2nc3c(C)cccc3[nH]2)cc1 [SMR000001134] | 1.46
39 | COc1ccc(CCC(=O)Nc2ccc(-c3noc(-c4ccc(OC)c(OC)c4)n3)cc2)cc1 [MLS000049572] | 1.18

same assay, conditions: inactive by the depositor's call

Row | SMILES | EC50 [µM]
40 | Cc1cc(C(=O)Nc2sc3c(c2C#N)CCC(C(C)(C)C)C3)no1 (configuration not stated) [MLS000087312] | 10.1
41 | O=C(CNc1ccccc1)Nc1ccc(F)cc1 [2-anilino-N-(4-fluorophenyl)acetamide] | 11.4
42 | Cc1cccc(-n2ccnc2SCC(=O)Nc2nccs2)c1 [2-[1-(3-methylphenyl)imidazol-2-yl]sulfanyl-N-(1,3-thiazol-2-yl)acetamide] | 10.9
